This passage reports GI50 and TGI results from PubChem BioAssay (NCI).

Test systems include OVCAR-8 ovarian; OVCAR-5 ovarian; PC-3 prostate; MDA-MB-435; MDA-MB-231 breast; CCRF-CEM leukemia; EKVX NSCLC; M14 melanoma; SK-MEL-28 melanoma; LOX IMVI melanoma.
What all share (assay): NCI tumour cell line growth inhibition, 48 h

Values joined by “and” are separate entries in the source; they are usually repeats but may differ in a detail not shown here. Identical values can stand only once.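 How tested: cells in 96-well plates exposed to compound for 48 hours at five concentrations. GI50: concentration for 50% inhibition of growth. TGI: total growth inhibition.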

As to `O=C1C2=C(C(=O)c3cnccc31)C1C=CC2CC1` (stereo unspecified), the GI50 with OVCAR-8 ovarian was 0.715 µM; in the assay on OVCAR-5 ovarian, 1.93 µM; in the assay on PC-3 prostate it was 2.15 µM; in the assay with MDA-MB-435 it was 1.8 µM; in the assay with MDA-MB-231 breast it was 2.45 µM; in the assay on CCRF-CEM leukemia, 0.66 µM. Also, the GI50 with EKVX NSCLC is 1.92 µM; in the assay on M14 melanoma, 1.94 µM; with SK-MEL-28 melanoma, 2.02 µM; in the assay on LOX IMVI melanoma it was 0.773 µM. For the same molecule, the TGI is 2.09 µM in the assay on OVCAR-8 ovarian; 3.71 µM with OVCAR-5 ovarian; 3.55 µM with MDA-MB-435; 7.61 µM with MDA-MB-231 breast; 4.13 µM in the assay on EKVX NSCLC; 3.41 µM with M14 melanoma. Further, the TGI in the assay with SK-MEL-28 melanoma was 3.69 µM; with LOX IMVI melanoma, 2.19 µM.

As for `CC(C)c1nc(N(C)S(C)(=O)=O)nc(-c2ccc(F)cc2)c1/C=C/[C@@H](O)C[C@@H](O)CC(=O)O`, the GI50 in the assay on OVCAR-8 ovarian was greater than 85.4 µM; in the assay with OVCAR-5 ovarian, greater than 100 µM; in the assay on PC-3 prostate it was 41.7 µM; with MDA-MB-435 it was 79.9 µM; in the assay with MDA-MB-231 breast it was 4.81 µM; in the assay with CCRF-CEM leukemia, greater than 100 µM. In addition, the GI50 was greater than 100 µM in the assay on EKVX NSCLC, greater than 100 µM in the assay on M14 melanoma, greater than 100 µM in the assay with SK-MEL-28 melanoma and 21.2 µM with LOX IMVI melanoma. Also, the TGI in the assay on OVCAR-8 ovarian was greater than 100 µM; in the assay with OVCAR-5 ovarian, greater than 100 µM; with PC-3 prostate it was greater than 100 µM; with MDA-MB-435 it was greater than 100 µM; in the assay with MDA-MB-231 breast, 42 µM; in the assay on CCRF-CEM leukemia it was greater than 100 µM. The TGI in the assay with EKVX NSCLC, in the assay with M14 melanoma, in the assay on SK-MEL-28 melanoma and in the assay with LOX IMVI melanoma was greater than 100 µM each time.

Consider `CCN1CCN(Cc2ccc(NC(=O)Nc3nc4ccc(Oc5ccnc(C(=O)NC)c5)cc4s3)cc2C(F)(F)F)CC1`, for which the GI50 was 2.11 µM in the assay on OVCAR-8 ovarian; 2.12 µM with OVCAR-5 ovarian; 1.87 µM in the assay on PC-3 prostate; 1.44 µM in the assay on MDA-MB-435; 1.74 µM with MDA-MB-231 breast; 0.443 µM in the assay on CCRF-CEM leukemia. Also, the GI50 in the assay with EKVX NSCLC was 2.01 µM; in the assay with M14 melanoma it was 1.75 µM; in the assay with SK-MEL-28 melanoma, 1.24 µM; with LOX IMVI melanoma, 1.71 µM. The TGI with OVCAR-8 ovarian worked out at 4.49 µM; in the assay with OVCAR-5 ovarian it was 3.93 µM; in the assay on PC-3 prostate, 3.58 µM; in the assay on MDA-MB-435, 2.86 µM; in the assay with MDA-MB-231 breast it was 3.4 µM; in the assay on CCRF-CEM leukemia it was 2.47 µM. Further, the TGI is 6.67 µM with EKVX NSCLC, 3.38 µM in the assay with M14 melanoma, 2.69 µM in the assay on SK-MEL-28 melanoma and 3.17 µM in the assay with LOX IMVI melanoma.

In the case of `Cc1nc2ccc(Br)cc2c(=O)n1-c1ccc(NC2OCC(O)C(O)C2O)cc1` (stereo unspecified), the GI50 in the assay on OVCAR-8 ovarian is 43.5 µM and > 100 µM; in the assay with PC-3 prostate it was 18.5 µM and > 100 µM; with MDA-MB-435 it was 36 µM and > 100 µM; with MDA-MB-231 breast it was 47.6 µM and > 100 µM; with CCRF-CEM leukemia it was 3.8 µM and 34.9 µM; with M14 melanoma, 17.9 µM and > 100 µM. The GI50 was 26.2 µM and > 100 µM in the assay with SK-MEL-28 melanoma; 15.3 µM and > 100 µM with LOX IMVI melanoma. Besides, the TGI is greater than 100 µM in the assay with OVCAR-8 ovarian; greater than 100 µM in the assay with OVCAR-5 ovarian; 86.9 µM and > 100 µM in the assay with PC-3 prostate; greater than 100 µM in the assay on MDA-MB-435; greater than 100 µM with MDA-MB-231 breast; 38 µM and > 100 µM with CCRF-CEM leukemia. In addition, the TGI with EKVX NSCLC was greater than 100 µM; with M14 melanoma, 35.6 µM and > 100 µM; in the assay with SK-MEL-28 melanoma, 66.9 µM and > 100 µM; in the assay with LOX IMVI melanoma, 33.8 µM and > 100 µM.

As to `CN1CCN(CCOc2ccc(-c3cnc4c(-c5cccc(F)c5)cnn4c3)cc2)CC1`, the GI50 in the assay on OVCAR-8 ovarian is 2.45 µM; in the assay on OVCAR-5 ovarian, 1.79 µM; in the assay with PC-3 prostate, 1.92 µM; with MDA-MB-435 it was 1.71 µM; in the assay with MDA-MB-231 breast, 1.71 µM; in the assay with CCRF-CEM leukemia, 2.11 µM. Also, the GI50 with EKVX NSCLC is 1.72 µM; in the assay with M14 melanoma, 1.95 µM; with SK-MEL-28 melanoma, 2.07 µM; in the assay with LOX IMVI melanoma, 1.84 µM. The TGI in the assay on OVCAR-8 ovarian was determined as 7.12 µM; in the assay on OVCAR-5 ovarian, 3.55 µM; with PC-3 prostate it was 4.39 µM; in the assay with MDA-MB-435, 3.16 µM; in the assay with MDA-MB-231 breast, 3.55 µM; in the assay on CCRF-CEM leukemia, 5.23 µM. For the same molecule, the TGI with EKVX NSCLC amounted to 3.45 µM; in the assay with M14 melanoma, 4.34 µM; with SK-MEL-28 melanoma, 4.54 µM; in the assay with LOX IMVI melanoma it was 3.35 µM.

For `O=C(Nc1ccc(F)cc1F)c1cc(Cl)ccc1O`, the GI50 in the assay with OVCAR-8 ovarian was 2.38 µM; with OVCAR-5 ovarian it was 4.4 µM; in the assay on PC-3 prostate, 1.88 µM; in the assay on MDA-MB-435 it was 1.21 µM; with MDA-MB-231 breast it was 1.74 µM; in the assay with CCRF-CEM leukemia, 3.04 µM. For the same molecule, the GI50 in the assay with EKVX NSCLC was 1.94 µM; in the assay with M14 melanoma it was 0.446 µM; in the assay with SK-MEL-28 melanoma, 0.754 µM; with LOX IMVI melanoma, 1.73 µM. Moreover, the TGI in the assay on OVCAR-8 ovarian is 13.3 µM; in the assay on OVCAR-5 ovarian it was greater than 100 µM; in the assay on PC-3 prostate, 41.2 µM; in the assay on MDA-MB-435 it was 8.53 µM; with MDA-MB-231 breast it was 7.48 µM; in the assay on CCRF-CEM leukemia it was 18.1 µM. Moreover, the TGI in the assay with EKVX NSCLC was determined as 8.38 µM; in the assay on M14 melanoma, 4.18 µM; with SK-MEL-28 melanoma it was 8.69 µM; with LOX IMVI melanoma, 12.6 µM.

Turning to `O=[N+]([O-])c1cccc(-c2nc(-c3ccccc3)c(-c3ccccc3)[nH]2)c1`, the TGI in the assay on OVCAR-8 ovarian, in the assay with OVCAR-5 ovarian, with PC-3 prostate, with MDA-MB-435, in the assay on MDA-MB-231 breast and with CCRF-CEM leukemia was greater than 100 µM in each case. Besides, the TGI in the assay with EKVX NSCLC, in the assay on M14 melanoma, in the assay with SK-MEL-28 melanoma and in the assay with LOX IMVI melanoma was greater than 100 µM throughout.

In the case of `CCCCCN(CCCCC)CC(O)c1cc(Cl)ccc1OC` (stereo unspecified), the GI50 was 11.4 µM in the assay with OVCAR-8 ovarian; 10.4 µM in the assay with OVCAR-5 ovarian; 11.3 µM with PC-3 prostate; 8.53 µM in the assay on MDA-MB-435; 5.38 µM in the assay with MDA-MB-231 breast; 11.3 µM in the assay with CCRF-CEM leukemia. Also, the GI50 is 6.39 µM in the assay on EKVX NSCLC, 8.81 µM in the assay on M14 melanoma, 1.63 µM in the assay on SK-MEL-28 melanoma and 5.23 µM in the assay on LOX IMVI melanoma. The TGI in the assay on OVCAR-8 ovarian turned out to be 25.7 µM; in the assay with OVCAR-5 ovarian, 23.8 µM; with PC-3 prostate it was 26.8 µM; in the assay with MDA-MB-435 it was 21.1 µM; in the assay on MDA-MB-231 breast it was 20 µM; in the assay with CCRF-CEM leukemia it was 36 µM. The TGI with EKVX NSCLC came to 22.3 µM; in the assay with M14 melanoma, 22.6 µM; in the assay on SK-MEL-28 melanoma, 3.51 µM; in the assay on LOX IMVI melanoma, 18.4 µM.
